Patent publication US9952300B2, “Dynamic contrast enhanced MRI method and agents for the assessment of the macromolecular transport within pathologic tissues” (BRACCO IMAGING S.P.A., priority 2012, dated 2018)
Values joined by “and” are separate entries in the source; they are usually repeats but may differ in a detail not shown here. Identical values can stand only once.

Key:
Human Serum Albumin = Human Serum Albumin (Homo sapiens, UniProt P02768); conditions: literature; cited from earlier work
Chain of Human Serum Albumin (P02768 25-609): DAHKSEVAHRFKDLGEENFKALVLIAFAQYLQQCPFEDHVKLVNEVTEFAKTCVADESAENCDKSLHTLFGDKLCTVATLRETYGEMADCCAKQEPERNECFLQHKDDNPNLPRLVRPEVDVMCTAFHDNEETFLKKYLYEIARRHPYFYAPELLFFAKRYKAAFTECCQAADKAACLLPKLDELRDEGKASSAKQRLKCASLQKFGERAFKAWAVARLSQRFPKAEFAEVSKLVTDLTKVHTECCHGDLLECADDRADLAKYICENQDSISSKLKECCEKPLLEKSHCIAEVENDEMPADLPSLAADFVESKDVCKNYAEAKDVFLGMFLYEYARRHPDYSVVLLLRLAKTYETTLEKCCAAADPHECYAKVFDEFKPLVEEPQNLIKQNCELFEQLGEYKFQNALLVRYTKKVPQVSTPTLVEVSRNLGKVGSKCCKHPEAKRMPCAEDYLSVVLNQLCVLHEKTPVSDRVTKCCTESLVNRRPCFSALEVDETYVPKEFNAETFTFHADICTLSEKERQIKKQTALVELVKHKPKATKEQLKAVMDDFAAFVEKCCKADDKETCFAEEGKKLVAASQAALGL

[1] = tested on: PC-3 human prostate adenocarcinoma tumor; assay: DCE-MRI of contrast agent kinetics in PC-3 tumors of Axitinib- or vehicle-treated mice (Example 3); assay type: in vivo, NCR athymic nude mice; conditions: contrast agent 100 μmol/kg i.v., one value per animal
From the text: The comparative test has been performed using NCR athymic nude mice implanted with PC-3 cells (a human prostate cancer line) and treated with Axitinib®, a VEGFRs inhibitor, (to modulate the tumor vascular permeability) by a protocol which timing is for instance schematized in FIG. 1. Scope of the test was to compare the image-based analysis of the albumin distribution in a human tumor model as extracted from the analysis of a time-serie of MRI images (with spatial resolution of around 110 μm) acquired with the method of the invention after injection of B22956/1 as contrast agent, and the distribution of FITC-BSA (Fluorescent isothiocyanate Bovine Serum Albumin) albumin inside and outside vessels histologically determined from fluorescent microscopy images on a scale of microns.
In particular, the trans-endothelial permeability (K^Trans) and the fractional plasma volume (fPV) were calculated from dynamic MR data by application of a bi-compartmental pharmacokinetic model, while the Initial Area Under the Curve (IAUCT) was calculated in several time windows, typically comprised between the contrast agent administration and the end of the MRI acquisition. The macromolecular penetration in tumors was, then, probed by fluorescently labelled Bovine Serum Albumin administered via tail vein after the last MRI session. Microscopic images were used to quantify the percentage of area stained by fluorescent albumin in the tumor, as a measure of the blood vessel density, using an automatic thresholding method. The albumin extravasation in the tumor extravascular space was assessed based on the fluorescence found out of the blood vessels from histological samples taken from both of tumor rim and core, for instance as schematized in FIG. 2. In particular, the albumin florescence was averaged over all pixels at a given distance from the nearest vessel and stored as a function of distance from the vessels walls, by use of an optimized procedure, for instance schematized in FIG. 3, providing both a quantification of the availability of the albumin in the extravascular space of the concerned tumor, namely the amount of the extravasated FITC-Albumin, and the decay of its concentration over the distance x from a nearest vessel, or, in other words, its actual distribution and dilution within the extracellular spaces (for instance as schematized in FIG. 4).
Human prostate adenocarcinoma cells (PC-3) were supplied by ATCC (American Type Culture Collection) and grown in Hams F-12 medium supplemented with 10% foetal bovine serum, 2 mM glutamine, 100 IU/mL penicillin and 100 μg/mL streptomycin (all from Lonza, Verviers, Belgium). […] Tumour development was followed by palpation and measured by calliper every 2-3 days until the end of the experiment. […]

tumor tissues = conditions: literature (Maeda et al.); cited from earlier work

O=C([O-])CN(CCN(CC(=O)[O-])C[C@H](COP(=O)([O-])OC1CCC(c2ccccc2)(c2ccccc2)CC1)N(CC(=O)[O-])CC(=O)[O-])CC(=O)[O-].[Gd+3].[H+].[H+].[H+] [Gadofosveset, reference compound]
non-covalent binding with Human Serum Albumin (Human Serum Albumin): about 90%

CNC[C@H](O)[C@@H](O)[C@H](O)[C@H](O)CO.CNC[C@H](O)[C@@H](O)[C@H](O)[C@H](O)CO.O=C([O-])CN(CCN(CC(=O)[O-])CC(=O)O)CCN(CC(=O)O)C(COCc1ccccc1)C(=O)[O-].[Gd+3] (stereo not shown) [MultiHance, reference compound]
kTrans (Transfer Constant) ([1]; tumor core): 3.63 mL\(min × g) × 100 and 1.02 mL\(min × g) × 100 and 2.86 mL\(min × g) × 100 and 3.57 mL\(min × g) × 100 and 2.54 mL\(min × g) × 100 and 1.53 mL\(min × g) × 100 and 0.82 mL\(min × g) × 100 and 3.15 mL\(min × g) × 100 and 4.46 mL\(min × g) × 100 and 1.08 mL\(min × g) × 100 and 1.63 mL\(min × g) × 100 and 3.19 mL\(min × g) × 100 and 2.6 mL\(min × g) × 100 and 4.07 mL\(min × g) × 100 and 1.06 mL\(min × g) × 100
kTrans (Transfer Constant) ([1]; tumor rim): 8.14 mL\(min × g) × 100 and 3.59 mL\(min × g) × 100 and 3.81 mL\(min × g) × 100 and 4.51 mL\(min × g) × 100 and 4.22 mL\(min × g) × 100 and 4.44 mL\(min × g) × 100 and 3.23 mL\(min × g) × 100 and 4.78 mL\(min × g) × 100 and 6.14 mL\(min × g) × 100 and 1.74 mL\(min × g) × 100 and 5.23 mL\(min × g) × 100 (2×) and 5.82 mL\(min × g) × 100 and 3.76 mL\(min × g) × 100 and 2.88 mL\(min × g) × 100

B1: SMANCS (conjugate, UniProt P0A3R9 35-147, looked up)
Neocarzinostatin: AAPTATVTPSSGLSDGTVVKVAGAGLQAGTAYDVGQCAWVDTGVLACNPADFSSVTADANGSASTSLTVRRSFEGFLFDGTRWGTVDCTTAACQVGLSDAAGNGPEGVAISFN
modifications: styrene-maleic acid copolymer conjugate
spontaneous accumulation within tumor tissues versus normal tissues and organs (tumor tissues): up to 200 times
